According to PMC6350207 (Drug Metabolism Letters, 2018):

Columns and labels:
[1] = in humans; cited from earlier work
[2] = tested on: recombinant UGT enzymes; test: Reaction phenotyping with recombinant UGT Supersomes; type: in vitro ADME, human; conditions: substrate 20 µM, UGT 0.2 mg/mL, 2 hours

Question: With `CCCC(CCC)C(=O)O` [valproic acid] as the compound, how does the “Share of drug metabolized to its corresponding glucuronide” value [1] read?
Answer: 50%

Question: With `CC(C)Cc1ccc(CC(=O)O)cc1` [Ibufenac] as the compound, how does the “Metabolism to the corresponding glucuronide by recombinant UGT enzymes” value [2] read?
Answer: none of the recombinant UGT enzymes studied in the present investigation were found to metabolize ibufenac
